Reference: patent US20110206770A1, “ATOVAQUONE WITH A PARTICLE SIZE DIAMETER RANGE (D90) OF GREATER THAN 3 MICRONS TO ABOUT 10 MICRONS” (Alphapharm Pty. Ltd., priority 2008, published 2011)

Assay: D90 particle size of atovaquone by Malvern Mastersizer
Type: physicochemical
Experimental: […]

[1] = Run 1, stir time 1 min, 30 mg in 900 mL purified water, polysorbate 80, 10 min sonication, 400 rpm

| Compound | D90 particle size [1] [microns] | D90 particle size (Run 1, stir time 2 min) [microns] | D90 particle size (Run 1, stir time 3 min) [microns] | D90 particle size (Run 1, stir time 4 min) [microns] | D90 particle size (Run 1, stir time 5 min) [microns] | D90 particle size (Run 2, stir time 1 min) [microns] | D90 particle size (Run 2, stir time 2 min) [microns] | D90 particle size (Run 2, stir time 3 min) [microns] | D90 particle size (Run 2, stir time 4 min) [microns] | D90 particle size (Run 2, stir time 5 min) [microns] | D90 particle size (Run 3, stir time 1 min) [microns] | D90 particle size (Run 3, stir time 2 min) [microns] | D90 particle size (Run 3, stir time 3 min) [microns] | D90 particle size (Run 3, stir time 4 min) [microns] | D90 particle size (Run 3, stir time 5 min) [microns] | D90 particle size (Run 4, stir time 1 min) [microns] | D90 particle size (Run 4, stir time 2 min) [microns] | D90 particle size (Run 4, stir time 3 min) [microns] | D90 particle size (Run 4, stir time 4 min) [microns] | D90 particle size (Run 4, stir time 5 min) [microns] |
| --- | --- | --- | --- | --- | --- | --- | --- | --- | --- | --- | --- | --- | --- | --- | --- | --- | --- | --- | --- | --- |
| O=C1C(O)=C([C@H]2CC[C@H](c3ccc(Cl)cc3)CC2)C(=O)c2ccccc21 [Example 5, trans-2-[4-(4-chlorophenyl)cyclohexyl]-3-hydroxy-1,4-naphthalenedione] | 7.971 | 7.949 | 8.215 | 8.276 | 7.948 | 7.726 | 7.723 | 7.726 | 7.727 | 7.723 | 7.978 | 7.974 | 7.977 | 7.979 | 7.973 |  |  |  |  |  |
| O=C1C(O)=C([C@H]2CC[C@H](c3ccc(Cl)cc3)CC2)C(=O)c2ccccc21 [Example 1, trans-2-[4-(4-chlorophenyl)cyclohexyl]-3-hydroxy-1,4-naphthalenedione] | 5.088 | 5.089 | 5.090 | 5.088 | 5.088 | 5.182 | 5.183 | 5.182 | 5.183 | 5.184 | 5.049 | 5.049 | 5.048 | 5.047 | 5.048 | 5.283 | 5.282 | 5.283 | 5.284 | 5.281 |
| O=C1C(O)=C([C@H]2CC[C@H](c3ccc(Cl)cc3)CC2)C(=O)c2ccccc21 [Example 3, trans-2-[4-(4-chlorophenyl)cyclohexyl]-3-hydroxy-1,4-naphthalenedione] | 4.280 | 4.280 | 4.280 | 4.280 | 4.280 | 4.260 | 4.260 | 4.261 | 4.261 | 4.260 | 4.124 | 4.124 | 4.123 | 4.123 | 4.125 | 4.285 | 4.285 | 4.286 | 4.286 | 4.286 |
| O=C1C(O)=C([C@H]2CC[C@H](c3ccc(Cl)cc3)CC2)C(=O)c2ccccc21 [Example 4, trans-2-[4-(4-chlorophenyl)cyclohexyl]-3-hydroxy-1,4-naphthalenedione] | 4.651 | 4.652 | 4.652 | 4.653 | 4.651 | 4.628 | 4.628 | 4.629 | 4.631 | 4.630 | 4.836 | 4.836 | 4.837 | 4.836 | 4.984 | 4.814 | 4.814 | 4.815 | 4.814 | 4.814 |
| O=C1C(O)=C([C@H]2CC[C@H](c3ccc(Cl)cc3)CC2)C(=O)c2ccccc21 [Example 2, trans-2-[4-(4-chlorophenyl)cyclohexyl]-3-hydroxy-1,4-naphthalenedione] | 6.177 | 6.176 | 6.175 | 6.176 | 6.176 | 6.258 | 6.257 | 6.258 | 6.260 | 6.259 | 6.338 | 6.339 | 6.336 | 6.339 | 6.337 | 6.572 | 6.572 | 6.572 | 6.569 | 6.571 |
